Source: the NIST ThermoML archive (doi:10.1021/je300775u)
Where “and” joins values, the source holds several entries; their conditions need not be identical. Equal entries are not always repeated. ± gives the expanded uncertainty stated by the source.

Columns and labels:
[1] = 101.3 kPa, Liquid; for speed of sound: Pulse-echo method; for mass density: Vibrating tube method
[2] = xn = mol fraction of the nth substance listed; conditions: 101 kPa, Liquid; for speed of sound: Pulse-echo method; for mass density: Vibrating tube method

Row | SMILES | speed of sound ([1]; 293.15 K) | mass density ([1]; 293.15 K) [kg/m3] | speed of sound ([1]; 298.15 K) | mass density ([1]; 298.15 K) [kg/m3] | speed of sound ([1]; 303.15 K) | mass density ([1]; 303.15 K) [kg/m3] | speed of sound ([1]; 308.15 K) | mass density ([1]; 308.15 K) [kg/m3] | speed of sound ([1]; 313.15 K) | mass density ([1]; 313.15 K) [kg/m3] | speed of sound ([2]; 293.15 K, x2 = 0) [m/s] | mass density ([2]; 293.15 K, x2 = 0) [kg/m3] | speed of sound ([2]; 298.15 K, x2 = 0) [m/s] | mass density ([2]; 298.15 K, x2 = 0) [kg/m3] | speed of sound ([2]; 303.15 K, x2 = 0) [m/s] | mass density ([2]; 303.15 K, x2 = 0) [kg/m3] | speed of sound ([2]; 308.15 K, x2 = 0) [m/s] | mass density ([2]; 308.15 K, x2 = 0) [kg/m3] | speed of sound ([2]; 313.15 K, x2 = 0) [m/s] | mass density ([2]; 313.15 K, x2 = 0) [kg/m3] | other results
1 | ClCBr [bromochloromethane] | 1001.2 ± 1.2 m/s | 1933.23 ± 1.1 | 986.1 ± 1.2 m/s | 1921.71 ± 1.1 | 971 ± 1.2 m/s | 1910.15 ± 1.1 | 955.9 ± 1.2 m/s | 1898.51 ± 1.1 | 940.8 ± 1.2 m/s | 1886.82 ± 1.1 |  |  |  |  |  |  |  |  |  |  | 
2 | ClC(Cl)(Cl)Br [bromotrichloromethane] | 917.1 ± 1.2 m/s | 2013.06 ± 1.2 | 903.6 ± 1.2 m/s | 2002.14 ± 1.2 | 890.2 ± 1.2 m/s | 1991.2 ± 1.2 | 876.8 ± 1.2 m/s | 1980.24 ± 1.2 | 863.6 ± 1.2 m/s | 1969.25 ± 1.2 |  |  |  |  |  |  |  |  |  |  | 
3 | ClC(Cl)(Cl)Br [bromotrichloromethane] + ClCBr |  |  |  |  |  |  |  |  |  |  |  |  |  |  |  |  |  |  |  |  | speed of sound ([2]; 293.15 K, x1 = 1): 917.1 ± 1.2 m/s; mass density ([2]; 293.15 K, x1 = 1): 2013.06 ± 1.2 kg/m3; speed of sound ([2]; 298.15 K, x1 = 1): 903.6 ± 1.2 m/s; mass density ([2]; 298.15 K, x1 = 1): 2002.14 ± 1.2 kg/m3; speed of sound ([2]; 303.15 K, x1 = 1): 890.2 ± 1.2 m/s; mass density ([2]; 303.15 K, x1 = 1): 1991.2 ± 1.2 kg/m3; speed of sound ([2]; 308.15 K, x1 = 1): 876.8 ± 1.2 m/s; mass density ([2]; 308.15 K, x1 = 1): 1980.24 ± 1.2 kg/m3; speed of sound ([2]; 313.15 K, x1 = 1): 863.6 ± 1.2 m/s; mass density ([2]; 313.15 K, x1 = 1): 1969.25 ± 1.2 kg/m3
4 | BrCBr [dibromomethane] | 961.8 ± 1.2 m/s | 2491.67 ± 1.8 | 949.2 ± 1.2 m/s | 2478.61 ± 1.8 | 936.6 ± 1.2 m/s | 2465.53 ± 1.8 | 924 ± 1.2 m/s | 2452.42 ± 1.8 | 911.4 ± 1.2 m/s | 2439.26 ± 1.8 |  |  |  |  |  |  |  |  |  |  | 
5 | BrCBr [dibromomethane] + ClC(Cl)(Cl)Br |  |  |  |  |  |  |  |  |  |  | 961.8 ± 1.2 | 2491.67 ± 1.8 | 949.2 ± 1.2 | 2478.61 ± 1.8 | 936.6 ± 1.2 | 2465.53 ± 1.8 | 924 ± 1.2 | 2452.42 ± 1.8 | 911.4 ± 1.2 | 2439.26 ± 1.8 | 
6 | CCCCCCC [heptane] | 1152.6 ± 0.9 m/s and 1152.2 ± 0.9 m/s | 683.84 ± 0.18 | 1131 ± 0.9 m/s and 1130.9 ± 0.9 m/s | 679.6 ± 0.18 | 1109.6 ± 0.9 m/s and 1109.1 ± 0.9 m/s | 675.33 ± 0.18 | 1088.2 ± 0.9 m/s and 1088.1 ± 0.9 m/s | 671.04 ± 0.18 | 1067.1 ± 0.9 m/s and 1066.9 ± 0.9 m/s | 666.71 ± 0.18 |  |  |  |  |  |  |  |  |  |  | 
7 | CCCCCCC [heptane] + BrCBr |  |  |  |  |  |  |  |  |  |  | 1152.2 ± 0.9 | 683.84 ± 0.18 | 1130.9 ± 0.9 | 679.6 ± 0.18 | 1109.1 ± 0.9 | 675.33 ± 0.18 | 1088.1 ± 0.9 | 671.04 ± 0.18 | 1066.9 ± 0.9 | 666.71 ± 0.18 | 
8 | CCCCCCC [heptane] + ClC(Cl)(Cl)Br |  |  |  |  |  |  |  |  |  |  | 1152.6 ± 0.9 | 683.84 ± 0.18 | 1131 ± 0.9 | 679.6 ± 0.18 | 1109.6 ± 0.9 | 675.33 ± 0.18 | 1088.2 ± 0.9 | 671.04 ± 0.18 | 1067.1 ± 0.9 | 666.71 ± 0.18 | 
